The results in this text go back to article PMC7539967, “The Plasmodium falciparum eIK1 kinase (PfeIK1) is central for melatonin synchronization in the human malaria parasite. Melatotosil blocks melatonin action on parasite cell cycle” (Journal of Pineal Research, 2020).

SMILES strings stand for the structures.

In series [1] the test system is P. falciparum PfeIK1^‐. Briefly: In vitro growth assay and flow cytometry analysis (72 h), PfeIK1 knockout. Type of series: cell-based, Plasmodium falciparum. Conditions: Plasmodium falciparum, read-out: IC50 (µM) PfelK1^‐ strain. On the procedure:
(§1) Red blood cells infected with P. falciparum 3D7 or PfeIK1^‐ (iRBC) with 0.3 % initial parasitemia and 1% hematocrit were incubated with different concentrations of compounds Tripbenz (4), Triptosil (5), Triptiofen (6), Tripfuroila (7), and Tripcicloexil (8) ranging from 0.107 to 110 µM, and compounds Melatobenz (9), Melatotosil (10), Melatofuroila (11), and Melatocicloexil (12) ranging from 0.1 to 100 µM for 72 hours at 37°C under mixture of gases. The control group was treated with solvent dimethyl sulfoxide (DMSO) (v/v), with the highest concentration of solvent 0.14%. Chloroquine was used as positive control with concentrations ranging from 0.244 to 250 nM. Parasitemia was determined from dot plots (side scatter versus fluorescence) of at least 10^3 cells acquired on a FACSCalibur flow cytometer using […] software (Becton Dickinson) or an Accuri C6 flow cytometer (Becton Dickinson). Initial gating was carried out with unstained, uninfected erythrocytes to account for erythrocyte auto fluorescence. The concentration responsible for 50% inhibition (IC50) was determined from the compound concentration‐response curve determined with the software GraphPad Prism 6.
(§2) For assays with antimalarials, iRBC were incubated with different concentrations of Atovaquone ranging from 0.02 to 24 nM, or Artemisinin 0.15‐160 nM.
(§3) After 72 hours, iRBC were stained with nucleic acid marker SYBR Green I (1X) (Invitrogen) and mitochondria marker based on membrane potential MitoTracker Deep Red (50 nM) (Invitrogen), and incubated for 20 minutes at 37°C. Final parasitemia was obtained by flow cytometer using a BD Accuri C6 Flow Cytometer, collecting 10^4 cells. Parasitemia was determined by dot plots using FlowJo 5 software.
(§4) At least three independent experiments were performed in triplicate to calculate the IC50 values for each drug.
For orientation: A flow cytometer gives signals particle by particle.

Series [2] has as its system Plasmodium falciparum 3D7. Briefly: In vitro growth assay and flow cytometry analysis (72 h), 3D7. It counts as cell-based. The following applies: Plasmodium falciparum, 3D7, 72 h, read-out: IC50 (µM) 3D7 strain. As to the method: as §1, §2, §3, §4
Series [3] has as its system P. falciparum GCaMP3 parasites. The series is described as follows: Calcium assay in transgenic PfGCaMP3 parasites. Type of series: cell-based, Plasmodium falciparum. The following applies: 500 nM. As to the method:
Calcium assays were performed using the transgenic P. falciparum GCaMP3 parasites. ^37 PfGCaMP3 cultures were synchronized at least three times with 5% sorbitol before starting the experiments, and parasitemia was maintained between 5% and 8%. PfGCaMP3 parasites were cultivated with 10 nM/mL of WR for selection. Parasites were isolated with saponin (0.016%) and collected by centrifugation 8000 rpm, subsequently washed twice with buffer M, and allowed to settle in a four‐well plate for microscope coated with poly‐L‐lysine for 30 minutes at 37°C with 5% CO2 in buffer M ([…], 5.4 mM KCl, 0.8 mM MgSO4, 5.5 mMD‐glucose, 50 mM MOPS, and 2 mM CaCl2, pH 7.2). The compounds used for measuring calcium assays were as follows: Melatotosil and Triptiofen solubilized in DMSO.
Images were captured using a Nikon Eclipse Ti2 inverted microscope with FITC filter. Images were collected every 10 seconds for 5 minutes, with NIS‐Elements Ar 5.11.01 from Nikon using 60× lens. All experiments were performed at least three independent times in duplicates.

Another series has as its system P. falciparum (3D7). Briefly: Microscopy evaluation of blood-stage development (Giemsa smears). Type of series: cell-based, Plasmodium falciparum. Conditions: for parasites in segmented schizont stage: 48 h, 3D7, Giemsa smears. On the procedure: Plasmodium falciparum (3D7) cultures were synchronized by three rounds of 5% sorbitol treatment for 1 hour. ^35 Parasites at ring stage with initial 1% parasitemia and 2% hematocrit were incubated with Triptiofen (6) at concentrations of 1 and 10 µM in 24‐well plates for 48 hours at 37°C under mixture of gases. The DMSO solvent (0.1%) was used as a control. Smears of infected erythrocytes stained with Giemsa were performed at regular intervals (0, 12, 24, 36 and 48 hours after treatment). ^36 Parasite images were acquired under a light microscope (Zeiss) with 100× magnification to assess the parasite's blood development stages. The parasitemia at the end of the experiment was quantified for comparison between groups. Three independent experiments were performed in triplicate. Data were analyzed using software GraphPad Prism 6.

In series [4] the test system is Plasmodium falciparum 3D7. The series is described as follows: Effect of compounds on melatonin action on parasitemia, 3D7. The following applies: 3D7, 500 nM compound + 100 nM melatonin, 48 h. Type of series: cell-based. As to the method:
(§5) To evaluate the effect of the compounds on melatonin action on parasitemia, iRBC were incubated with 500 nM of compounds for 10 minutes and then along with 100 nM of melatonin for 48 hours at 37°C under mixture of gases.
(§6) After 48 hours, iRBC were double‐stained ^34 with nucleic acid marker SYBR Green I (1X) and mitochondria marker, based on membrane potential, MitoTracker Deep Red (50 nM), and incubated for 20 minutes at 37°C.
(§7) Final parasitemia was obtained by flow cytometer using an Accuri C6 flow cytometer (Becton Dickinson), collecting 10^4 cells. Parasitemia was determined by dot plots using FlowJo 5 software.

For series [5], the system named is Plasmodium falciparum 3D7. Briefly: Effect of indole compounds in parasitemia (48 h), 3D7. It counts as cell-based. On the procedure: (§8) Red blood cells infected (iRBC) with 3D7 or PfeIK1^‐ (iRBC) with 1% initial parasitemia and 2% hematocrit were incubated with 500 nM of the synthetic indole compounds or 100 nM Melatonin for 48 hours at 37°C under mixture of gases. ^12 The control group received 0.0013% of solvent dimethyl sulfoxide (DMSO).
as §6, §7

For series [6], the system named is P. falciparum PfeIK1^‐. Briefly: Effect of compounds on melatonin action on parasitemia, PfeIK1 knockout. It counts as cell-based, Plasmodium falciparum. The following applies: 500 nM compound + 100 nM melatonin, 48 h, normalized to control. As to the method:
as §5, §6, §7

Series [7] has as its system P. falciparum PfeIK1^‐. The series is described as follows: Effect of indole compounds in parasitemia (48 h), PfeIK1 knockout. It counts as cell-based. Conditions: Plasmodium falciparum, read-out: final parasitemia normalized to control. On the procedure: as §8, §6, §7
In series [8] the test system is Human Embryonic Kidney cells (HEK293). Briefly: Cytotoxicity Assay in HEK293 cells (MTT). The following applies: 0.107 to 110 µM, 72 h. Type of series: cell-based. On the procedure: To evaluate toxicity of the new indole compounds in mammalian cells, Human Embryonic Kidney cells (HEK293) were maintained in 75 cm^2 culture flasks (Greiner Bio‐One) at 37°C, 5%CO2 in […] (DMEM), supplemented with 10% fetal bovine serum, NaHCO33.7 g/L (Sigma), 100 U/mL penicillin/, and 100 μg/mL streptomycin in monolayers.
Cells were plated in flat‐bottom 96‐well plates in a density of 10^4 cells per well and incubated for 24 hours in 150 µL media at 37°C, 5%CO2. Cells were then treated with different concentrations of each compound, ranging from 0.107 to 110 µM in 200 µL DMEM for 72 hours at 37°C and 5%CO2. Cells treated with DMSO (v/v) with the highest concentration of solvent 0.14% were used as control.
After incubation, 40 µL of MTT reagent (solution 5 mg/mL in PBS) was added to each well, and cells were incubated for further 3 hours at 37°C and 5% CO2. The media were removed and 100 µL of DMSO was added in each well. Plates were agitated in a shaker for 10 minutes to dissolve precipitates. Absorbance was read at 570 nm in a FlexStation 3 (Molecular Devices). Six experiments were performed independently in triplicates.

Series [9] deals with pfeik1 gene expression in P. falciparum 3D7. Briefly: Quantitative real-time PCR of pfeik1 expression. It counts as cell-based, Plasmodium falciparum. Conditions: 100 nM melatonin, 4 h. As to the method:
For these experiments, P. falciparum 3D7 culture was synchronized with 5% sorbitol and parasites collected in the three stages: ring (14 hours); trophozoite (30 hours); and schizont (44 hours), at 4% parasitemia. Parasites were treated with 100 nM Melatonin or 0.00005% ethanol (control) and left for 4 hours before RNA extraction with Trizol (Invitrogen). RNA purified with ionic exchange columns with DNAse using RNAse‐free DNAse set (Qiagen) and RNeasy Mini Kit (Qiagen) and quantified in a UV‐Vis NanoDrop 2000c (Thermo Scientific). Three independent experiments were performed in triplicates.
cDNA syntheses were performed using random primers and Superscript II reverse transcriptase (Invitrogen) according to the manufacturer’s protocol. SYBR Green (Applied Biosystems) was used in quantitative real‐time PCR on a 7300 Real‐Time PCR System (Applied Biosystems). Amplification was carried out as follow: on step 50°C for 2 min and 95°C for 10 min for enzyme activation followed by 40 cycles of 95°C for 0.15 min for denaturation and 60°C for 1 min for annealing/extension. The primers used were as follows: PF14_0423‐Fwd […] and PF14_0423‐Rvs […].
Changes in relative expression were determined by 2^‐ΔΔCt or transforming the threshold cycle in absolute number of mRNA. […]
(In general: Quantitative PCR measures a nucleic acid by following its amplification.)

By IC50 is commonly meant the concentration that gives 50% inhibition. In the case of `O=C(NCCc1c[nH]c2ccccc12)c1ccc(Br)s1` [Triptiofen (6), N‐(2‐(1H‐indol‐3‐yl) ethyl)‐5‐bromothiophene‐2‐carboxamide], the IC50 came out at 11.8 ± 0.6 µM in the series on P. falciparum PfeIK1^‐ [1] and 9.76 ± 0.6 µM in series [2]. The cytosolic calcium rise entry in [3] (PfGCaMP3) is reported as “does not trigger a significant cytosolic calcium rise”. In series [3] (PfGCaMP3, 120 cells), the “Fmax/F0 (maximum fluorescence normalized to baseline)” value amounted to 1.11 ± 0.008. The “parasites in segmented schizont stage” value in the series with P. falciparum (3D7) (1 µM) is on record as 1.33 ± 0.33; in the series on P. falciparum (3D7) (10 µM), 2.22 ± 0.32. The “number of parasites compared to control” value with P. falciparum (3D7) (1 and 10 µM, starting at 36 hours, 3D7) is “significantly reduces”. Also, the “ability to abolish the increase in parasitemia triggered by melatonin” value in series [4] is given as “able to abolish”. For the same molecule, the “decrease in parasitemia compared to treatment with the hormone only” value in series [4] is 10%. Further, in [4], the “parasitemia normalized to control, compound along with melatonin” value is 100.1%. The activity at 0.5 µM in [5] (Plasmodium falciparum, 3D7, 500 nM compound, read-out: final parasitemia normalized to control) was found to be 99.8%; in the series on P. falciparum PfeIK1^‐ [7], 98.7%. For the same molecule, in the series on P. falciparum PfeIK1^‐ [6], the “final parasitemia, compound along with melatonin” value is given as 104.1 ± 1.87%. Also, the “toxicity in HEK293 cells” value in series [8] is “no toxicity”.
As for `COc1ccc2[nH]cc(CCNC(C)=O)c2c1` [melatonin, N‐acetyl‐ 5‐methoxytryptamine], in series [5] (3D7, 100 nM melatonin), the increase in parasitemia result is “approximately 10%” and the “parasitemia normalized to control, hormone only” value was 110%. For the same molecule, in [9] (ring stage), the “decrease in pfeik1 expression compared to control” value stood at 40%. Besides, the “pfeik1 expression vs solvent” value in series [9] (trophozoite and schizont stages) was “no significant difference”.
